As a reminder, the mortality is the percentage killed.

This is an account of results in patent US10273226B2, “Pyrazolyl-heteroarylamides as pesticides” (Bayer Animal Health GmbH, priority 2014, dated 2019).

Common to all, as to format: in vivo
One test relates to Rhipicephalus sanguineus. In words: Rhipicephalus sanguineus in vitro contact test with adult brown dog ticks. Particulars: application rate 5 μg/cm^2 (500 g/ha); after 48 h; ticks dead or moribund. Summed up:
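Test tubes (25 ml) were coated by dissolving active ingredient in acetone p.a., diluting to the required concentration, and spreading 250 μl over the inner walls and base on an orbital shaker at 30 rpm for 2 h. Once dry, 5-10 adult Rhipicephalus sanguineus were added, and tubes were capped with perforated lids and kept horizontal in darkness at room temperature. At 48 h, ticks were knocked down and heated at 45-50° C. for up to 5 min. Those unable to climb away were counted dead or moribund, and efficacy ran from 0% to 100%.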

A further test concerns Lucilia cuprina. Put plainly: Lucilia cuprina test. Conditions: application rate 100 ppm; L1 larvae; after 2 days. Summed up:
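Mortality read at 2 days as percent larvae killed (100% = all, 0% = none). Test used roughly 20 first-instar larvae on minced horsemeat dosed with water-diluted DMSO formulation of compound.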

The test system of test [1] is Anopheles gambiae strain RSPH (homozygot kdr). In words: Anopheles test (ANPHGB surface treatment). Particulars: application rate 100 mg/m^2, exposure 30 minutes, 24 hours after contact, read-out: efficacy (mortality in %). How it is done: Anopheles Test (ANPHGB Surface Treatment)
(§1) Solvent: acetone+2000 ppm rapeseed oil methyl ester (RME)
To produce an appropriate active ingredient formulation, the active ingredient is dissolved in the solvent (2 mg/ml). The active ingredient formulation is pipetted onto a glazed tile and, after it has dried off, adult mosquitoes of the species Anopheles gambiae strain RSPH (homozygot kdr) are placed onto the treated tile. The exposure time is 30 minutes.
(§2) 24 hours after contact with the treated surface, mortality in % is determined. 100% means that all the mosquitoes have been killed; 0% means that none of the mosquitoes have been killed.

Test [2] has as its system Anopheles funestus strain FUMOZ-R. In words: Anopheles test (ANPHFU surface treatment). Conditions: 24 hours after contact, read-out: efficacy (mortality in %). How it is done:
Anopheles Test (ANPHFU Surface Treatment)
as §1
To produce an appropriate active ingredient formulation, the active ingredient is dissolved in the solvent (2 mg/ml). The active ingredient formulation is pipetted onto a glazed tile and, after it has dried off, adult mosquitoes of the species Anopheles funestus strain FUMOZ-R (Hunt et al., Med Vet Entomol. 2005 September; 19 (3):271-5) are placed onto the treated tile. The exposure time is 30 minutes.
as §2

Molecules are shown by their SMILES.

`Cn1nc(C(F)(F)C(F)(F)F)c(C(F)(F)F)c1-n1cc(-c2cccc(NC(=O)c3ccncc3)c2)cn1` [Example 1-001, N-{3-[2′-Methyl-5′-(pentafluoroethyl)-4′-(trifluoromethyl)-2′H-1,3′-bipyrazol-4-yl]-phenyl}isonicotinamide]: the efficacy in the test with Rhipicephalus sanguineus is 100%. Further, the “efficacy (kill in %)” value in the test with Lucilia cuprina worked out at 100%. The mortality at 100 mg/m2 in test [1] was in the range of 90 to 100%; in test [2] (application rate 100 mg/m^2, exposure 30 minutes), 90 to 100%. The mortality at 20 mg/m2 in test [2] (application rate 20 mg/m^2, exposure 30 minutes) lay within 90 to 100%.
